What was measured:
Type in all cases: biochemical
[1] = biological target: T1, PI3K beta (Homo sapiens, UniProt P42338); assay: Luciferase-based luminescence assay (ADP Glo), PI3K beta enzymatic activity; conditions: for IC50: inhibition of enzymatic activity, ADP Glo, 25 μM ATP, read-out: IC50 p110β; for α/β ratio: ratio of enzymatic IC50 values, Table 1
T1 construct: purchased Millipore, Billerica, MA, USA
Procedure: (§1) PI3K catalyzes the conversion of phosphatidylinositol-4,5-bisphosphate (PIP2) and ATP to phosphatidylinositol-3,4,5-trisphosphate (PIP3) and ADP. For all assays, the reaction buffer comprised 50 mM HEPES, pH 7.5, 3 mM MgCl2, 1 mM EGTA, 100 mM NaCl, 0.03% CHAPS and 2 mM DTT. Compounds for testing were dissolved and serially diluted in 100% DMSO (total of 10 concentrations), then diluted 1:25 in reaction buffer.
(§2) PI3K beta and gamma enzymatic activity was determined by measuring the amount of ADP produced following the kinase reaction using a luciferase-based luminescence assay (ADP Glo®, Promega Corp., Madison, WI, USA). PI3K enzyme solutions were prepared by diluting PI3K beta (Millipore, Billerica, MA, USA) or PI3K gamma (Invitrogen Corp., Carlsbad, CA, USA) in reaction buffer, to 4× the final assay concentration (final concentrations of enzymes were 4.8 nM and 7.6 nM for PI3K beta and PI3K gamma respectively). A substrate solution was prepared by mixing PIP2 and ATP in reaction buffer at 2× the final assay concentration (final concentrations were 50 μM and 25 μM for PIP2 and ATP respectively). 2.5 μL each of the compound and kinase mixtures were added to individual wells of white low volume 384-well assay plates and mixed by shaking. The reactions were started by adding 5 μL of substrate mixture per well and shaking. The assay plates were covered and reactions were allowed to proceed for 1 hour. Then, 5 μL of reaction mix was transferred to another white low volume 384-well plate, and 5 μL of ADP-Glo™ reagent was added. The plates were briefly centrifuged and incubated for 40 minutes, after which 10 μL of kinase detection buffer was added. The plates then were centrifuged briefly, shaken slowly and equilibrated at room temperature for 30 minutes, after which luminescence was measured using a FlexStation plate reader (Molecular Devices, Sunnyvale, CA, USA). IC50 values were determined by curve fitting using Graphpad Prism software (Graphpad Software, La Jolla, CA, USA).

[2] = biological target: T2, PI3K gamma (Homo sapiens, UniProt P48736); assay: Luciferase-based luminescence assay (ADP Glo), PI3K gamma enzymatic activity; conditions: inhibition of enzymatic activity, 25 μM ATP, read-out: IC50 p110γ
T2 construct: purchased Invitrogen Corp., Carlsbad, CA, USA
Procedure: as §1, §2

[3] = biological target: T3, PI3K delta (Homo sapiens, UniProt O00329); assay: Luciferase-based luminescence assay (KinaseGlo), PI3K delta enzymatic activity; conditions: for IC50: inhibition of enzymatic activity, KinaseGlo, 25 μM ATP, read-out: IC50 p110δ; for α/δ ratio: ratio of enzymatic IC50 against PI3Kα over IC50 against PI3Kδ; for β/δ ratio / γ/δ ratio: ratio of enzymatic IC50 values, Table 1
T3 construct: purchased Millipore, Billerica, MA, USA
Procedure: as §1
PI3K alpha and PI3K delta enzymatic activity was determined by measuring the amount of ATP consumed following the kinase reaction using a luciferase-based luminescence assay (KinaseGlo®, Promega Corp., Madison, WI, USA). PI3K enzyme solutions were prepared by diluting PI3K alpha (Invitrogen Corp., Carlsbad, CA, USA) or PI3K delta (Millipore, Billerica, MA, USA) in reaction buffer, to 4× the final assay concentration (final concentrations of enzymes were 1.65 nM and 6.86 nM for PI3K alpha and PI3K delta, respectively). A substrate solution was prepared by mixing PIP2 and ATP in reaction buffer at 2× the final assay concentration (final concentrations were 50 μM and 25 μM for PIP2 and ATP respectively). 2.5 μL each of the compound and kinase mixtures were added to individual wells of white low volume 384-well assay plates and mixed by shaking. The reactions were started by adding 5 μL of substrate mixture per well and shaking. The assay plates were covered and reactions were allowed to proceed for 1 hour (PI3K alpha) or 2 hours (PI3K delta), after which 10 μL of Kinase Glo® reagent was added. The plates were briefly centrifuged and incubated for 10 minutes, after which luminescence was measured using a FlexStation plate reader (Molecular Devices, Sunnyvale, CA, USA). IC50 values were determined by curve fitting using Graphpad Prism software (Graphpad Software, La Jolla, CA, USA).

T2 sequence (P48736 whole entry, species assumed): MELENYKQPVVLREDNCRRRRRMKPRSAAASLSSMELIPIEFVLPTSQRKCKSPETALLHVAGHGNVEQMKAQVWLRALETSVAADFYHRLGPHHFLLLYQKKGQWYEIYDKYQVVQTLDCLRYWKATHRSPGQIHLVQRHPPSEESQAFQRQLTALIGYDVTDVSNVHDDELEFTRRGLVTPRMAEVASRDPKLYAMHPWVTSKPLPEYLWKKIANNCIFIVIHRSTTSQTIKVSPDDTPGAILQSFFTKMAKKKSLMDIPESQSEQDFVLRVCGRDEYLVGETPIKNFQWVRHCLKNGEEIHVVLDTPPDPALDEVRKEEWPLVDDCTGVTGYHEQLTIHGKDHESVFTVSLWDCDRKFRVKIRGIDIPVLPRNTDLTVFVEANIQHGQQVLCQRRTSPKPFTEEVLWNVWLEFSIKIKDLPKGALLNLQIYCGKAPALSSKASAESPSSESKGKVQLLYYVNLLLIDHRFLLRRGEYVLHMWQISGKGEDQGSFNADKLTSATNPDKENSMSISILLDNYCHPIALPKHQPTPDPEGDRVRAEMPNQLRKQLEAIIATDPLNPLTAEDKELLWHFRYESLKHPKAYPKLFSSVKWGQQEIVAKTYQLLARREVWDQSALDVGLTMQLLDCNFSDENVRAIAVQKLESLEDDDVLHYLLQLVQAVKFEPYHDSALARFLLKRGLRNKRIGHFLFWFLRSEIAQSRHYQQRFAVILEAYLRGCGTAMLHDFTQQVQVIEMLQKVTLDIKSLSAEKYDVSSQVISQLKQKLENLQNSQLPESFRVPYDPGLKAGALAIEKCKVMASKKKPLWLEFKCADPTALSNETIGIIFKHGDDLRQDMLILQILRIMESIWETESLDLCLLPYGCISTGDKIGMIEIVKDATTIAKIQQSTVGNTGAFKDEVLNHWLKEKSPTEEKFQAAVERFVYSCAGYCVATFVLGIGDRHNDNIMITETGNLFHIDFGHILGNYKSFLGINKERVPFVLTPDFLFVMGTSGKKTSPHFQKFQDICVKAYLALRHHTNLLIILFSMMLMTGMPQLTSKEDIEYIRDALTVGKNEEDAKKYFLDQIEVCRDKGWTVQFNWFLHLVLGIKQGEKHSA
T3 sequence (O00329 whole entry, species assumed): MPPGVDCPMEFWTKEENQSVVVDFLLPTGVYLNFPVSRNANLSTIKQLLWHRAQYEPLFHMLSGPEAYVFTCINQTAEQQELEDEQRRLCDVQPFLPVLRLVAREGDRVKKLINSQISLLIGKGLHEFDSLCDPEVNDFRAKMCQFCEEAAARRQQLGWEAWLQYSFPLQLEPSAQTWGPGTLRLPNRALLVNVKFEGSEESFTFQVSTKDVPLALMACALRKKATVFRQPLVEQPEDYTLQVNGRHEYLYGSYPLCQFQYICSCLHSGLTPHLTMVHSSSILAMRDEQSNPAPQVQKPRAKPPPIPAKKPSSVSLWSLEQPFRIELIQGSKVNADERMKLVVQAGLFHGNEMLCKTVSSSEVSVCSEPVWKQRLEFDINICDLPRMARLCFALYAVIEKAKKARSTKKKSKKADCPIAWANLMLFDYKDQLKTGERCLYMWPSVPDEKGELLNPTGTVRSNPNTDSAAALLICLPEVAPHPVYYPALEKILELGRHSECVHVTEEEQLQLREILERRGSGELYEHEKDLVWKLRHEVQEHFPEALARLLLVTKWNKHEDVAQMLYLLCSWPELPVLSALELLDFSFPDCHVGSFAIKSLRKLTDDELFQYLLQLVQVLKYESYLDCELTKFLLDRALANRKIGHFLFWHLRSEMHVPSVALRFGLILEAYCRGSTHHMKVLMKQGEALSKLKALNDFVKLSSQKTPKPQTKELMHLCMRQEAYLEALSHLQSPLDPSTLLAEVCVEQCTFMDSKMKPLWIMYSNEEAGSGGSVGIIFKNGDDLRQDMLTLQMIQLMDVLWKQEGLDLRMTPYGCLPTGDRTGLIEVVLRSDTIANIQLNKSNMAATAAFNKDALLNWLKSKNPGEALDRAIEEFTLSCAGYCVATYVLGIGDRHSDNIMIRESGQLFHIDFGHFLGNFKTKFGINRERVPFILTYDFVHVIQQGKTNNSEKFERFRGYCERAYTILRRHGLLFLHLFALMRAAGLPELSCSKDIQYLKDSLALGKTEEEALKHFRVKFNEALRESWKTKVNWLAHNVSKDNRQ
T3 sequence (P27986 whole entry partner, species assumed): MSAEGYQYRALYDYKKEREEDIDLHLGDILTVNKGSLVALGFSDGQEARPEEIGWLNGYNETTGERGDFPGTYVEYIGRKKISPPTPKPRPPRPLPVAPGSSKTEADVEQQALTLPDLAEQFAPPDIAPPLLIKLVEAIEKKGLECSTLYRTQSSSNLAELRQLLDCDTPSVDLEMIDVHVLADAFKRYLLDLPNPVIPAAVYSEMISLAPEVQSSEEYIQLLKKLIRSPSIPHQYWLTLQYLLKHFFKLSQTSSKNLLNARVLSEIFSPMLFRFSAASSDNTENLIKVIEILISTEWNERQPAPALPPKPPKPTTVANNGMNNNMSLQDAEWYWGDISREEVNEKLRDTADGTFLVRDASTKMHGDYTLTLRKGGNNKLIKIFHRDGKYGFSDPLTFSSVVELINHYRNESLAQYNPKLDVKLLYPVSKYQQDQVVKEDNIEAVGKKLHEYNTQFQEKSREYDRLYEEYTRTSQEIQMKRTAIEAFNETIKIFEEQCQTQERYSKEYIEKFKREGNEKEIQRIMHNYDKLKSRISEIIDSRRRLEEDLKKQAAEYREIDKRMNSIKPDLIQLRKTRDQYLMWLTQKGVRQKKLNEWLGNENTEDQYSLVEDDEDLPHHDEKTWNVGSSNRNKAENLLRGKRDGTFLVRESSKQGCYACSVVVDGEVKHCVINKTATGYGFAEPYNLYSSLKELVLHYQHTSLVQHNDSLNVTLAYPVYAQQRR
T1 sequence (P42338 whole entry, species assumed): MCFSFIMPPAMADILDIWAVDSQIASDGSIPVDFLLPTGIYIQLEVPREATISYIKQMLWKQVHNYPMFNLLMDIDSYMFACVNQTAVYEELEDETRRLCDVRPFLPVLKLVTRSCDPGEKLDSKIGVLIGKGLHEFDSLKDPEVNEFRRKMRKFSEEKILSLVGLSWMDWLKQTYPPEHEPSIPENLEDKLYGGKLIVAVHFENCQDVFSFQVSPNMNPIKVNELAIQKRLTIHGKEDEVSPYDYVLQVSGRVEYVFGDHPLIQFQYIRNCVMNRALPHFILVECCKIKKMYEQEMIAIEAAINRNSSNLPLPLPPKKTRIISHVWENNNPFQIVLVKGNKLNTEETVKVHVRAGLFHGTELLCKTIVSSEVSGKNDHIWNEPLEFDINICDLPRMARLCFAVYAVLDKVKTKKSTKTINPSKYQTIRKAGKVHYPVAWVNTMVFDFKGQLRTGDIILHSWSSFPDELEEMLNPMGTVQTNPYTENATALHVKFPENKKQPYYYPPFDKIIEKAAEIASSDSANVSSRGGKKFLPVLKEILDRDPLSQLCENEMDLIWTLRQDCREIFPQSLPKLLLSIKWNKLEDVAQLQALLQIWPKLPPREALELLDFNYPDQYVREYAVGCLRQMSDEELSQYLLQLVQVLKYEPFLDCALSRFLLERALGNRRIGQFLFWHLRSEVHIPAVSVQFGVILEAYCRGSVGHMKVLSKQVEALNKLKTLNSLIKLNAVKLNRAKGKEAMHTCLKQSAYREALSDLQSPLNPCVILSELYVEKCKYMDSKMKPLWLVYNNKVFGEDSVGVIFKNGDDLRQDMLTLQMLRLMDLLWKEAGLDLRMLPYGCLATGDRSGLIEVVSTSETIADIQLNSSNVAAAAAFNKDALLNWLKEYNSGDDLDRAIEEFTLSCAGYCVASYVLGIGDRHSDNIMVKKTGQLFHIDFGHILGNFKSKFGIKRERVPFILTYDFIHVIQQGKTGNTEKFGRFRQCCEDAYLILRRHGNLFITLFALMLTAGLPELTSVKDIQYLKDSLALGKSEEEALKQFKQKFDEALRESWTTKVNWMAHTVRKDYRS
T1 sequence (P27986 whole entry partner, species assumed): as the sequence (P27986 whole entry partner, species assumed) above

SMILES	IC50 [1]	α/β ratio [1]	IC50 [2]	IC50 [3]	α/δ ratio [3]	β/δ ratio [3]	γ/δ ratio [3]
CC(C)(Cc1ccccc1)Nc1nc(N2CCOCC2)nc(-n2c(C(F)F)nc3ccccc32)n1 [Compound A14, 4-(2-(difluoromethyl)-1H-benzo[d]imidazol-1-yl)-N-(2-methyl-1-phenylpropan-2-yl)-6-morpholino-1,3,5-triazin-2-amine]	≤ 100 nM	A’	200 to 500 nM	≤ 100 nM	A’	D’	A’
CC(C)(Cc1ccccc1F)Nc1nc(N2CCOCC2)nc(-n2c(C(F)F)nc3ccccc32)n1 [Compound A15, 4-(2-(difluoromethyl)-1H-benzo[d]imidazol-1-yl)-N-(1-(2-fluorophenyl)-2-methylpropan-2-yl)-6-morpholino-1,3,5-triazin-2-amine]	100 to 200 nM	D’	> 500 nM	≤ 100 nM	A’	C’	A’
CC(C)(Cc1ccccc1Cl)Nc1nc(N2CCOCC2)nc(-n2c(C(F)F)nc3ccccc32)n1 [Compound A16, 4-(2-(difluoromethyl)-1H-benzo[d]imidazol-1-yl)-N-(1-(2-chlorophenyl)-2-methylpropan-2-yl)-6-morpholino-1,3,5-triazin-2-amine]	≤ 100 nM	A’	200 to 500 nM	≤ 100 nM	A’	D’	C’
Cc1ccccc1CC(C)(C)Nc1nc(N2CCOCC2)nc(-n2c(C(F)F)nc3ccccc32)n1 [Compound A18, 4-(2-(difluoromethyl)-1H-benzo[d]imidazol-1-yl)-N-(2-methyl-1-(o-tolyl)propan-2-yl)-6-morpholino-1,3,5-triazin-2-amine]	≤ 100 nM	A’	200 to 500 nM	≤ 100 nM	A’	D’	B’
COc1ccccc1CC(C)(C)Nc1nc(N2CCOCC2)nc(-n2c(C(F)F)nc3ccccc32)n1 [Compound A19, 4-(2-(difluoromethyl)-1H-benzo[d]imidazol-1-yl)-N-(1-(2-methoxyphenyl)-2-methylpropan-2-yl)-6-morpholino-1,3,5-triazin-2-amine]	200 to 500 nM	D’	200 to 500 nM	≤ 100 nM	B’	B’	B’
COc1cccc(CC(C)(C)Nc2nc(N3CCOCC3)nc(-n3c(C(F)F)nc4ccccc43)n2)c1 [Compound A21, 4-(2-(difluoromethyl)-1H-benzo[d]imidazol-1-yl)-N-(1-(3-methoxyphenyl)-2-methylpropan-2-yl)-6-morpholino-1,3,5-triazin-2-amine]	100 to 200 nM	C’	> 500 nM	≤ 100 nM	A’	B’	A’
CC(C)(Cc1ccc(F)cc1)Nc1nc(N2CCOCC2)nc(-n2c(C(F)F)nc3ccccc32)n1 [Compound A22, 4-(2-(difluoromethyl)-1H-benzo[d]imidazol-1-yl)-N-(1-(4-fluorophenyl)-2-methylpropan-2-yl)-6-morpholino-1,3,5-triazin-2-amine]	100 to 200 nM	C’	200 to 500 nM	≤ 100 nM	A’	C’	A’
CC(C)(Cc1cccc2ccccc12)Nc1nc(N2CCOCC2)nc(-n2c(C(F)F)nc3ccccc32)n1 [Compound A27, 4-(2-(difluoromethyl)-1H-benzo[d]imidazol-1-yl)-N-(2-methyl-1-(naphthalen-1-yl)propan-2-yl)-6-morpholino-1,3,5-triazin-2-amine]	≤ 100 nM	B’	≤ 100 nM	≤ 100 nM	A’	D’	D’
CC(C)(Cc1ccccc1-c1ccncc1)Nc1nc(N2CCOCC2)nc(-n2c(C(F)F)nc3ccccc32)n1 [Compound A33, 4-(2-(difluoromethyl)-1H-benzo[d]imidazol-1-yl)-N-(2-methyl-1-(2-(pyridin-4-yl)phenyl)propan-2-yl)-6-morpholino-1,3,5-triazin-2-amine]	≤ 100 nM	B’	200 to 500 nM	≤ 100 nM	A’	D’	A’
CN1CCC(c2ccccc2CC(C)(C)Nc2nc(N3CCOCC3)nc(-n3c(C(F)F)nc4ccccc43)n2)CC1 [Compound A35, 4-(2-(difluoromethyl)-1H-benzo[d]imidazol-1-yl)-N-(2-methyl-1-(2-(1-methylpiperidin-4-yl)phenyl)propan-2-yl)-6-morpholino-1,3,5-triazin-2-amine]	200 to 500 nM	B’	> 500 nM	≤ 100 nM	A’	A’	A’
CC(C)(Cc1cccc(F)c1)Nc1nc(N2CCOCC2)nc(-n2c(C(F)F)nc3ccccc32)n1 [Compound A39, 4-(2-(difluoromethyl)-1H-benzo[d]imidazol-1-yl)-N-(1-(3-fluorophenyl)-2-methylpropan-2-yl)-6-morpholino-1,3,5-triazin-2-amine]	≤ 100 nM	A’	200 to 500 nM	≤ 100 nM	A’	D’	B’
CC(C)(Cc1ccccc1-c1cccnc1)Nc1nc(N2CCOCC2)nc(-n2c(C(F)F)nc3ccccc32)n1 [Compound A40, 4-(2-(difluoromethyl)-1H-benzo[d]imidazol-1-yl)-N-(2-methyl-1-(2-(pyridin-3-yl)phenyl)propan-2-yl)-6-morpholino-1,3,5-triazin-2-amine]	≤ 100 nM	B’	200 to 500 nM	≤ 100 nM	A’	D’	A’
COc1cc(-c2ccccc2CC(C)(C)Nc2nc(N3CCOCC3)nc(-n3c(C(F)F)nc4ccccc43)n2)ccn1 [Compound A41, 4-(2-(difluoromethyl)-1H-benzo[d]imidazol-1-yl)-N-(1-(2-(2-methoxypyridin-4-yl)phenyl)-2-methylpropan-2-yl)-6-morpholino-1,3,5-triazin-2-amine]	> 500 nM	D’	> 500 nM	≤ 100 nM	A’	A’	A’
Cc1cc(-c2ccccc2CC(C)(C)Nc2nc(N3CCOCC3)nc(-n3c(C(F)F)nc4ccccc43)n2)ccn1 [Compound A43, 4-(2-(difluoromethyl)-1H-benzo[d]imidazol-1-yl)-N-(2-methyl-1-(2-(2-methylpyridin-4-yl)phenyl)propan-2-yl)-6-morpholino-1,3,5-triazin-2-amine]	≤ 100 nM	A’	> 500 nM	≤ 100 nM	A’	D’	A’
CC(C)(Cc1ccccc1-c1cn[nH]c1)Nc1nc(N2CCOCC2)nc(-n2c(C(F)F)nc3ccccc32)n1 [Compound A44, 4-(2-(difluoromethyl)-1H-benzo[d]imidazol-1-yl)-N-(1-(2-(1H-pyrazol-4-yl)phenyl)-2-methylpropan-2-yl)-6-morpholino-1,3,5-triazin-2-amine]	≤ 100 nM	A’	100 to 200 nM	≤ 100 nM	A’	D’	A’

Reference: patent US12059422B2 (MEI Pharma, Inc., priority 2011, dated 2024)
